Target: T1, cystathionine γ-lyase (CGL) (Rattus norvegicus, UniProt P18757)
T1 construct: gene Cth
Experiment: homoserine γ-elimination assay (2-oxobutanoate), Dixon plot
Type: biochemical

T1 sequence (P18757 whole entry): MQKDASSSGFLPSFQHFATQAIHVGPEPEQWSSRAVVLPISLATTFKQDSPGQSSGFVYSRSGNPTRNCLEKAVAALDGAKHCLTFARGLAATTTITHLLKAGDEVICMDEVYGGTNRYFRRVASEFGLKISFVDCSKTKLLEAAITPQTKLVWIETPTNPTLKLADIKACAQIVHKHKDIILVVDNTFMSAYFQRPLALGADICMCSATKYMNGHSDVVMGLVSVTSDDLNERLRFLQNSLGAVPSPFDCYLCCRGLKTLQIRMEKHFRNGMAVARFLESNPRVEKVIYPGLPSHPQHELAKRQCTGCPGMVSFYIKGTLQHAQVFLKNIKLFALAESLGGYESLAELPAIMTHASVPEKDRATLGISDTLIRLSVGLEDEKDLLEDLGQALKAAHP

Structure (SMILES): N[C@@H](CS)C(=O)O [cysteine]
- Ki: 520 µM

— paper PMC11229439 (GeroScience, 2023)
